Experimental data taken from US20060083680A1, “Diphenyl ether derivatives and their use for imaging serotonin transporters” (The Trustees of the University of Pennsylvania, priority 2004, published 2006).
Where “and” joins values, the source holds several entries; their conditions need not be identical. Identical values can stand only once. Entries after “also recorded” stand apart in the source; their conditions may differ.

How the values were obtained:
[1] = Biodistribution in rats after iv injection (organs); assay type: in vivo; details: iv, 24 hrs
Procedure: Biodistribution in rats: Three rats per group were used for each biodistribution study. While under ether anesthesia, 0.2 mL of a saline solution containing 10 μCi of radioactive tracer was injected into the femoral vein. The rats were sacrificed at the time indicated by cardiac excision while under ether anesthesia. Organs of interest were removed and weighed, and the radioactivity was counted. The percent dose per organ was calculated by a comparison of the tissue counts to counts of 1% of the initial dose (100 times diluted aliquots of the injected material) measured at the same time.

[2] = Stability of the radioactive material; details: refrigerator
SERT binding sites = target: T1, SERT binding sites (Rattus norvegicus, UniProt P31652); test: Ex vivo autoradiography of rat brain sections; assay type: in vivo, rats; details: rats, ex vivo after i.v. injection
T1 construct: from tissue; host or cells: rat brain in vivo (hypothalamus, cortex, striatum, hippocampus, cerebellum); ex vivo brain sections

serotonin transporters = target: T2, serotonin transporters (Rattus norvegicus, UniProt P31652); test: Regional brain distribution and specific binding ratio in rats; assay type: in vivo; details: for Ratio of (Region-Cerebellum)/Cerebellum, CX / Ratio of (Region-Cerebellum)/Cerebellum, HP / Ratio of (Region-Cerebellum)/Cerebellum, HY / Ratio of (Region-Cerebellum)/Cerebellum, ST / Regional brain distribution CB (cerebellum) / Regional brain distribution CX (cortex) / Regional brain distribution HP (hippocampus) / Regional brain distribution HY (hypothalamus) / Regional brain distribution ST (striatum): iv
T2 construct: from tissue; host or cells: rat brain in vivo (hypothalamus, cortex, striatum, hippocampus, cerebellum); ex vivo brain sections
Procedure: Regional brain distribution in rats was measured after an i.v. injection of the radioactive tracer. Samples from different brain regions: cortex (frontal plus occipital), striatum, hippocampus, cerebellum and hypothalamus were dissected, weighed and counted. The percentage dose/g of each sample was calculated by comparing sample counts with the counts of the diluted initial dose described above. The specific binding ratio in each region was obtained by dividing the % dose/gram values between region by that in the cerebellum ([region-cerebellum/cerebellum]). The cerebellum region containing little or no serotonin transporters was used as the background region.

T2 sequence (P31652 whole entry): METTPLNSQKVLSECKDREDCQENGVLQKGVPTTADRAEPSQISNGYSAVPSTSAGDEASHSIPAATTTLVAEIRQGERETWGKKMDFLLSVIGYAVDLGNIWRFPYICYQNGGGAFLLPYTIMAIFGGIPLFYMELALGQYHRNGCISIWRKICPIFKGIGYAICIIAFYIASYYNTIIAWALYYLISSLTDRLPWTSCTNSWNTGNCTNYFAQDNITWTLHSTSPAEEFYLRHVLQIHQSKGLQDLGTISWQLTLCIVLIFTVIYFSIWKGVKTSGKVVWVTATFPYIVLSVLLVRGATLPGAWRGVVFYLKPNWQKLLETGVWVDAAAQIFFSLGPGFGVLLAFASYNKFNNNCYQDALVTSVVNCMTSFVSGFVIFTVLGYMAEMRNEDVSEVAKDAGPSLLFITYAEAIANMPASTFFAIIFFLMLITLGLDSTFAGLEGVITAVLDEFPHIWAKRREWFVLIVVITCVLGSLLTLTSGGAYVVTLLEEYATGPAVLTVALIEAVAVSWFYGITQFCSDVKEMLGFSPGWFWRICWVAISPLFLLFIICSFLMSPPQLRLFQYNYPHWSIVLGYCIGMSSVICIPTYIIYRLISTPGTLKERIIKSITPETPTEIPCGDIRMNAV
T1 sequence (P31652 whole entry): as above

CN(C)Cc1ccccc1Oc1ccc([125I])cc1N [[^125I]4, [^125I][^123I]2-(2-(Dimethylaminomethyl)phenoxy)-5-iodophenylamine]
Biodistribution Lung [1]: 0.04 ± 0.00 % dose/organ | Biodistribution Muscle [1]: 1.13 ± 0.13 % dose/organ | Biodistribution Skin [1]: 4.02 ± 0.26 % dose/organ | Biodistribution Spleen [1]: 0.05 ± 0.01 % dose/organ | Biodistribution Thyroid [1]: 4.61 ± 1.21 % dose/organ | stability in a refrigerator [2]: stable in a refrigerator for at least three weeks | regional distribution pattern in brain (SERT binding sites): distinctive distribution pattern in the brain, which reflected regional distribution of SERT binding sites; also recorded: excellent regional distribution pattern consistent with known SERT localization | hypothalamus uptake compared to other radioiodinated compounds (serotonin transporters; 60-240 min post i.v. injection): highest uptake in hypothalamus | Ratio of (Region-Cerebellum)/Cerebellum, CX (serotonin transporters; 2 min): 0.56 ± 0.55 | Ratio of (Region-Cerebellum)/Cerebellum, HP (serotonin transporters; 2 min): 0.13 ± 0.22 | Ratio of (Region-Cerebellum)/Cerebellum, HY (serotonin transporters; 2 min): 0.24 ± 0.17 | Ratio of (Region-Cerebellum)/Cerebellum, ST (serotonin transporters; 2 min): 0.01 ± 0.27 | Regional brain distribution CB (cerebellum) (serotonin transporters; 2 min): 0.79 ± 0.21 % dose/g | Regional brain distribution CX (cortex) (serotonin transporters; 2 min): 1.16 ± 0.14 % dose/g | Regional brain distribution HP (hippocampus) (serotonin transporters; 2 min): 0.86 ± 0.07 % dose/g | Regional brain distribution HY (hypothalamus) (serotonin transporters; 2 min): 0.96 ± 0.15 % dose/g | Regional brain distribution ST (striatum) (serotonin transporters; 2 min): 0.77 ± 0.04 % dose/g | Ratio of (Region-Cerebellum)/Cerebellum, CX (serotonin transporters; 30 min): 0.96 ± 0.14 | Ratio of (Region-Cerebellum)/Cerebellum, HP (serotonin transporters; 30 min): 0.68 ± 0.22 | Ratio of (Region-Cerebellum)/Cerebellum, HY (serotonin transporters; 30 min): 1.06 ± 0.22 | Ratio of (Region-Cerebellum)/Cerebellum, ST (serotonin transporters; 30 min): 0.83 ± 0.23 | Regional brain distribution CB (cerebellum) (serotonin transporters; 30 min): 0.64 ± 0.09 % dose/g | Regional brain distribution CX (cortex) (serotonin transporters; 30 min): 1.25 ± 0.13 % dose/g | Regional brain distribution HP (hippocampus) (serotonin transporters; 30 min): 1.06 ± 0.12 % dose/g | Regional brain distribution HY (hypothalamus) (serotonin transporters; 30 min): 1.30 ± 0.06 % dose/g | Regional brain distribution ST (striatum) (serotonin transporters; 30 min): 1.16 ± 0.10 % dose/g | Ratio of (Region-Cerebellum)/Cerebellum, CX (serotonin transporters; 60 min): 1.35 ± 0.07 | Ratio of (Region-Cerebellum)/Cerebellum, HP (serotonin transporters; 60 min): 1.30 ± 0.05 | Ratio of (Region-Cerebellum)/Cerebellum, HY (serotonin transporters; 60 min): 1.92 and 1.92 ± 0.20 | Ratio of (Region-Cerebellum)/Cerebellum, ST (serotonin transporters; 60 min): 1.51 ± 0.12 | Regional brain distribution CB (cerebellum) (serotonin transporters; 60 min): 0.41 ± 0.03 % dose/g | Regional brain distribution CX (cortex) (serotonin transporters; 60 min): 0.95 ± 0.07 % dose/g | Regional brain distribution HP (hippocampus) (serotonin transporters; 60 min): 0.94 ± 0.08 % dose/g | Regional brain distribution HY (hypothalamus) (serotonin transporters; 60 min): 1.18 ± 0.08 % dose/g | Regional brain distribution ST (striatum) (serotonin transporters; 60 min): 1.02 ± 0.11 % dose/g | Ratio of (Region-Cerebellum)/Cerebellum, CX (serotonin transporters; 120 min): 1.48 ± 0.13 | Ratio of (Region-Cerebellum)/Cerebellum, HP (serotonin transporters; 120 min): 2.19 ± 0.07 | Ratio of (Region-Cerebellum)/Cerebellum, HY (serotonin transporters; 120 min): 3.49 and 3.49 ± 0.09 | Ratio of (Region-Cerebellum)/Cerebellum, ST (serotonin transporters; 120 min): 2.53 ± 0.17 | Regional brain distribution CB (cerebellum) (serotonin transporters; 120 min): 0.21 ± 0.01 % dose/g | Regional brain distribution CX (cortex) (serotonin transporters; 120 min): 0.51 ± 0.04 % dose/g | Regional brain distribution HP (hippocampus) (serotonin transporters; 120 min): 0.65 ± 0.04 % dose/g | Regional brain distribution HY (hypothalamus) (serotonin transporters; 120 min): 0.92 ± 0.06 % dose/g | Regional brain distribution ST (striatum) (serotonin transporters; 120 min): 0.72 ± 0.01 % dose/g | Ratio of (Region-Cerebellum)/Cerebellum, CX (serotonin transporters; 240 min): 1.12 ± 0.17 | Ratio of (Region-Cerebellum)/Cerebellum, HP (serotonin transporters; 240 min): 2.47 ± 0.28 | Ratio of (Region-Cerebellum)/Cerebellum, HY (serotonin transporters; 240 min): 4.49 and 4.3 and 4.49 ± 0.12 | Ratio of (Region-Cerebellum)/Cerebellum, ST (serotonin transporters; 240 min): 3.11 ± 0.35 | Regional brain distribution CB (cerebellum) (serotonin transporters; 240 min): 0.06 ± 0.00 % dose/g | Regional brain distribution CX (cortex) (serotonin transporters; 240 min): 0.12 ± 0.01 % dose/g | Regional brain distribution HP (hippocampus) (serotonin transporters; 240 min): 0.20 ± 0.02 % dose/g | Regional brain distribution HY (hypothalamus) (serotonin transporters; 240 min): 0.32 ± 0.03 % dose/g | Regional brain distribution ST (striatum) (serotonin transporters; 240 min): 0.24 ± 0.02 % dose/g | Ratio of (Region-Cerebellum)/Cerebellum, CX (serotonin transporters; 6 hrs): 0.58 ± 0.09 | Ratio of (Region-Cerebellum)/Cerebellum, HP (serotonin transporters; 6 hrs): 1.21 ± 0.11 | Ratio of (Region-Cerebellum)/Cerebellum, HY (serotonin transporters; 6 hrs): 2.64 and 2.64 ± 0.54 | Ratio of (Region-Cerebellum)/Cerebellum, ST (serotonin transporters; 6 hrs): 1.56 ± 0.41 | Regional brain distribution CB (cerebellum) (serotonin transporters; 6 hrs): 0.027 ± 0.002 % dose/g | Regional brain distribution CX (cortex) (serotonin transporters; 6 hrs): 0.042 ± 0.002 % dose/g | Regional brain distribution HP (hippocampus) (serotonin transporters; 6 hrs): 0.059 ± 0.005 % dose/g | Regional brain distribution HY (hypothalamus) (serotonin transporters; 6 hrs): 0.097 ± 0.015 % dose/g | Regional brain distribution ST (striatum) (serotonin transporters; 6 hrs): 0.068 ± 0.005 % dose/g | Ratio of (Region-Cerebellum)/Cerebellum, CX (serotonin transporters; 11 hrs): 0.00 ± 0.16 | Ratio of (Region-Cerebellum)/Cerebellum, HP (serotonin transporters; 11 hrs): 0.09 ± 0.08 | Ratio of (Region-Cerebellum)/Cerebellum, HY (serotonin transporters; 11 hrs): 0.44 ± 0.19 | Ratio of (Region-Cerebellum)/Cerebellum, ST (serotonin transporters; 11 hrs): 0.14 ± 0.13 | Regional brain distribution CB (cerebellum) (serotonin transporters; 11 hrs): 0.011 ± 0.0013 % dose/g | Regional brain distribution CX (cortex) (serotonin transporters; 11 hrs): 0.010 ± 0.0010 % dose/g | Regional brain distribution HP (hippocampus) (serotonin transporters; 11 hrs): 0.012 ± 0.0021 % dose/g | Regional brain distribution HY (hypothalamus) (serotonin transporters; 11 hrs): 0.016 ± 0.0025 % dose/g | Regional brain distribution ST (striatum) (serotonin transporters; 11 hrs): 0.012 ± 0.0000 % dose/g | Ratio of (Region-Cerebellum)/Cerebellum, HY (serotonin transporters; 24 hrs): 0.23 ± 0.15 | Regional brain distribution CB (cerebellum) (serotonin transporters; 24 hrs): 0.0049 ± 0.0009 % dose/g | Regional brain distribution CX (cortex) (serotonin transporters; 24 hrs): 0.0040 ± 0.0007 % dose/g | Regional brain distribution HP (hippocampus) (serotonin transporters; 24 hrs): 0.0040 ± 0.0005 % dose/g | Regional brain distribution HY (hypothalamus) (serotonin transporters; 24 hrs): 0.0060 ± 0.0010 % dose/g | Regional brain distribution ST (striatum) (serotonin transporters; 24 hrs): 0.0039 ± 0.0004 % dose/g
